Experimental data reported in patent US9770438B2, “Clonidine formulation in a polyorthoester carrier” (Medtronic, Inc., priority 2008, dated 2017).

How the values were obtained:
[1] = test system: Rat Chronic Constriction Injury Model (Bennett Model) of neuropathic pain; settings: subcutaneously 0.02 mg/kg/day; compared to unloaded polyorthoester depot (POE Control); days 7-63; FIG. 3
From the text: (§1) A 2-month chronic constriction injury (CCI) model of neuropathic pain was used to evaluate a formulation of clonidine encapsulated in a POE polymer, a POE control polymer and clonidine given subcutaneously (SC).
(§2) The inventors evaluated the efficacy of a five month Clonidine/Polyorthoester Drug Depot in the Rat Chronic Constriction Injury Model. The animal model was the Bennett Model (Wistar rat). The purpose: to determine whether a five month polyorthoester clonidine-eluting depot can improve pain associated behavioral responses in a rat model of neuropathic pain.
(§3) Experimental Design: Four loose chromic gut ligatures, 1 mm apart, were tied around the common sciatic nerve at mid-thigh. Each animal received treatment of test or a controlled article according to the dosing described in Table 2.
(§4) The inventors have conducted the present study for a period of 64 days and have employed the following two tests: (1) the Hargreaves test; and (2) the von Frey test. The Hargreaves Tests of Thermal Hyperalgesia were conducted on days 7, 14, 21, 28, 35, 42, 49, 56 and 63. The von Frey monofilament test of mechanical allodynia (performed the day following thermal testing) were conducted on days 8, 15, 22, 29, 36, 43, 50, 57 and 64.

[2] = test system: Rat Chronic Constriction Injury Model (Bennett Model) of neuropathic pain; settings: subcutaneously 0.02 mg/kg/day; compared to unloaded polyorthoester depot (POE Control); days 8-64; FIG. 4
From the text: as §1, §2, §3, §4

Structure (SMILES): Clc1cccc(Cl)c1N=C1NCCN1 [clonidine, 2,6-dichloro-N-2-imidazolidinyldenebenzenamine]
- pain behavioral response (percentage of baseline) for thermal hyperalgesia [1]: consistently reduced the behavioral response
- pain behavioral response (percentage of baseline) for mechanical allodynia [2]: reduced the behavioral response
